Assay results published in paper PMC4306942, “Asperlones A and B, Dinaphthalenone Derivatives from a Mangrove Endophytic Fungus Aspergillus sp. 16-5C” (Marine Drugs, 2015).

How the values were obtained:
[1] = target: T1, Mycobacterium tuberculosis protein tyrosine phosphatase B (MptpB) (Mycobacterium tuberculosis, UniProt I6WXK4); experiment: MptpB inhibition assay (RediPlate 96 EnzChek Tyrosine Phosphatase Assay kit, DiFMUP hydrolysis); format: biochemical; conditions: for IC50: fluorogenic substrate DiFMUP, average of three independent experiments, read-out: IC50 against MptpB; for inhibitory activity against MptpB (in words): bioassay summary in conclusions
T1 construct: The full-length PTPB gene was amplified from genomic DNA of the Mtb H37Rv strain; His6 (N); made in house; host or cells: Escherichia coli BL21(DH3) (so in the source)
T1 sequence (I6WXK4 whole entry, looked up): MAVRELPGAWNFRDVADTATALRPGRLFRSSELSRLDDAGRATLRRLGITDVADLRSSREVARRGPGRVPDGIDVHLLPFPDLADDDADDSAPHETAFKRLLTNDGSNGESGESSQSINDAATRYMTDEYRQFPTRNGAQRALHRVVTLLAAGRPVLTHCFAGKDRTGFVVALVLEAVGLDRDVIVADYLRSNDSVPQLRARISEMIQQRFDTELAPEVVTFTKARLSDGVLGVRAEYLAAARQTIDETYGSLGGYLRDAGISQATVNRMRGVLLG

SMILES: C/C=C/C1=CC2=CC(=O)[C@@](C)(OC(=O)c3c(C)cc(O)cc3O)C(=O)C2=CO1 [Compound 6, (−)-mitorubrin]
- IC50 [1]: 3.99 ± 0.34 µM
- inhibitory activity against MptpB (in words) [1]: strong inhibitory activity

SMILES: Cc1cc(O)cc(O)c1C(=O)O[C@]1(C)C(=O)C=C2C=C(/C=C/C(=O)O)OC=C2C1=O [Compound 5, (−)-mitorubrinic acid]
- IC50 [1]: > 50 µM

SMILES: O=C1C2=C3C(=CC(=O)c4c(O)cccc43)OC2(O)Cc2cc(O)cc(O)c21 (racemic) [Compound 1, (±)-asperlone A]
- IC50 [1]: 4.24 ± 0.41 µM
- inhibitory activity against MptpB (in words) [1]: strong inhibitory activity

SMILES: O=C1C2=C3C(=CC(=O)c4c(O)cc(O)cc43)OC2(O)Cc2cc(O)cc(O)c21 (racemic) [Compound 2, (±)-asperlone B]
- IC50 [1]: 4.32 ± 0.6 µM
- inhibitory activity against MptpB (in words) [1]: strong inhibitory activity

SMILES: Cc1c(O)c(O)cc(O)c1C(=O)O[C@]1(C)C(=O)C=C2C=C(C=CC(=O)O)OC=C2C1=O [Compound 3, 6″-hydroxy-(R)-mitorubrinic acid]
- IC50 [1]: > 50 µM
- melting point: > 300 °C

SMILES: [Na+].[Na+].[Na+].[O]=[V]([O-])([O-])[O-] [Positive Control, sodium orthovanadate, reference compound]
- IC50 [1]: 0.05 µM
